In one assay the target is T1, IL-17A/F (Homo sapiens, UniProt Q16552+Q96PD4).
T1 construct: purchased R&D Systems
T1 sequence (Q16552 24-155): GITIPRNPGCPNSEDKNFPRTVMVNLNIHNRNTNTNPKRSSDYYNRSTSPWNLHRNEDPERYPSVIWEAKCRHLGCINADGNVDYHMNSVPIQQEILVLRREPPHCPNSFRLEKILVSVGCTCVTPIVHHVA
T1 sequence (Q96PD4 31-163): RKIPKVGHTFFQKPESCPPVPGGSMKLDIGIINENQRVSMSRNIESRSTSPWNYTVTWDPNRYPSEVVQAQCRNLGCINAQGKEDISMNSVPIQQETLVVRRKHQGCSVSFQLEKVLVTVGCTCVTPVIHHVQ
As to the kind of experiment: IL-17A/F HEK-Blue cell assay (SEAP reporter). Type of assay: cell-based. Particulars: HEK-Blue IL-17A reporter cells, IL17A/F 5 ng/mL, 20 hours, SEAP read at A630; read-out: HEK-Blue IL17AF (IC50 for IL-17A/F inhibition).

For the next assay, the target named is T2, IL-17A/A (Homo sapiens, UniProt Q16552).
T2 construct: purchased Genscript Z03228
T2 sequence (Q16552 24-155): T1 sequence (Q16552 24-155)
As to the kind of experiment: IL-17A/A HEK-Blue cell assay (SEAP reporter). Particulars: HEK-Blue IL-17A reporter cells, IL17A/A 5 ng/mL, 20 hours, SEAP read at A630; read-out: HEK-Blue IL17AA (IC50 for IL-17A/A inhibition). In kind it is cell-based.

`CCn1nccc1C(=O)N[C@H](c1cn2nc(C[C@H]3C[C@@H](C(F)(F)F)CNC3=O)c(OC(C)C)nc2n1)C1CCC(F)(F)CC1` [Compound 417, N—((S)-(4,4-difluorocyclohexyl)(3-isopropoxy-2-(((3R,5R)-2-oxo-5-(trifluoromethyl)piperidin-3-yl)methyl)imidazo[1,2-b][1,2,4]triazin-6-yl)methyl)-1-ethyl-1H-pyrazole-5-carboxamide]: the IC50 was more than 1000 nM at IL-17A/F and less than 100 nM at IL-17A/A.
The corresponding values for `CCn1ccc(C(=O)N[C@H](c2cn3nc(C[C@H]4C[C@@H](C(F)(F)F)CNC4=O)c(C4CCOCC4)nc3n2)C2CCC(F)(F)CC2)n1` [Compound 418, N—((S)-(4,4-difluorocyclohexyl)(2-(((3R,5R)-2-oxo-5-(trifluoromethyl)piperidin-3-yl)methyl)-3-(tetrahydro-2H-pyran-4-yl)imidazo[1,2-b][1,2,4]triazin-6-yl)methyl)-1-ethyl-1H-pyrazole-3-carboxamide] are more than 1000 nM and less than 100 nM.
For the molecule `O=C(N[C@H](c1cn2nc(C[C@H]3C[C@@H](C(F)(F)F)CNC3=O)c(C3CCOCC3)nc2n1)C1CCC(F)(F)CC1)c1ccnn1C1CC1` [Compound 419], the figures for the IC50 at IL-17A/F and on IL-17A/A were 100 to 1000 nM and less than 100 nM, respectively.
The like results for `CCn1nccc1C(=O)N[C@H](c1cn2nc(C[C@H]3C[C@@H](C(F)(F)F)CNC3=O)c(N3C[C@H](C)O[C@@H](C)C3)nc2n1)C1CCC(F)(F)CC1` [Compound 420, N—((S)-(4,4-difluorocyclohexyl)(3-((2S,6S)-2,6-dimethylmorpholino)-2-(((3R,5R)-2-oxo-5-(trifluoromethyl)piperidin-3-yl)methyl)imidazo[1,2-b][1,2,4]triazin-6-yl)methyl)-1-ethyl-1H-pyrazole-5-carboxamide] were, in that order, 100 to 1000 nM and less than 100 nM.
On to `CCc1nonc1C(=O)N[C@H](c1cn2nc(C[C@H]3C[C@@H](C(F)(F)F)CNC3=O)c(N3CCN(CCOC)CC3)nc2n1)C1CCC(F)(F)CC1` [Compound 421, N—((S)-(4,4-difluorocyclohexyl)(3-(4-(2-methoxyethyl)piperazin-1-yl)-2-(((3R,5R)-2-oxo-5-(trifluoromethyl)piperidin-3-yl)methyl)imidazo[1,2-b][1,2,4]triazin-6-yl)methyl)-4-ethyl-1,2,5-oxadiazole-3-carboxamide], for which the values for the IC50 at IL-17A/F and on IL-17A/A were more than 1000 nM and less than 100 nM, respectively.
`CCn1ncnc1C(=O)N[C@H](c1cn2nc(C[C@H]3C[C@@H](C(F)(F)F)CNC3=O)c(C3CCOCC3)nc2n1)[C@H]1CCCC(F)(F)C1` [Compound 422, N—((S)—((S)-3,3-difluorocyclohexyl)(2-(((3R,5R)-2-oxo-5-(trifluoromethyl)piperidin-3-yl)methyl)-3-(tetrahydro-2H-pyran-4-yl)imidazo[1,2-b][1,2,4]triazin-6-yl)methyl)-1-ethyl-1H-1,2,4-triazole-5-carboxamide]: the results for the IC50 at IL-17A/F and at IL-17A/A were 100 to 1000 nM and less than 100 nM, respectively.
For the molecule `CCn1nccc1C(=O)N[C@H](c1cn2nc(C[C@H]3CC4(CC4)CNC3=O)c(C3CCOCC3)nc2n1)C1CCC(F)(F)CC1` [Compound 423], the IC50 at IL-17A/F was more than 1000 nM; at IL-17A/A, less than 100 nM.
As for `CCn1nccc1C(=O)N[C@H](c1cn2nc(C[C@@H]3CC4(CC4)CNC3=O)c(C3CCOCC3)nc2n1)C1CCC(F)(F)CC1` [Compound 424], the IC50 at IL-17A/F was 100 to 1000 nM; at IL-17A/A it was less than 100 nM.
The corresponding values for `CCn1nccc1C(=O)N[C@H](c1cn2nc(C[C@@H]3C(=O)NC4CC3C4)c(C3CCOCC3)nc2n1)C1CCC(F)(F)CC1` [Compound 425] are more than 1000 nM and 100 to 1000 nM.
On to `CCn1nccc1C(=O)N[C@H](c1cn2nc(C[C@H]3C(=O)NC4CC3C4)c(C3CCOCC3)nc2n1)C1CCC(F)(F)CC1` [Compound 426], for which the IC50 was more than 1000 nM at IL-17A/F and less than 100 nM on IL-17A/A.
Consider `CCn1nccc1C(=O)N[C@H](c1cn2nc(C[C@@H]3C(=O)NC[C@@H]4C[C@@H]43)c(C3CCOCC3)nc2n1)C1CCC(F)(F)CC1` [Compound 427], for which the IC50 at IL-17A/F is more than 1000 nM; on IL-17A/A, 100 to 1000 nM.
The corresponding values for `CCn1nccc1C(=O)N[C@H](c1cn2nc(C[C@@H]3C(=O)NC[C@H]4C[C@H]43)c(C3CCOCC3)nc2n1)C1CCC(F)(F)CC1` [Compound 428] are more than 1000 nM and less than 100 nM.
For `CCn1nccc1C(=O)N[C@H](c1cn2nc(C[C@H]3C(=O)NC[C@H]4C[C@H]43)c(C3CCOCC3)nc2n1)C1CCC(F)(F)CC1` [Compound 429], the IC50 at IL-17A/F was more than 1000 nM; at IL-17A/A it was 100 to 1000 nM.
The like results for `O=C(N[C@H](c1cn2nc(C[C@H]3C[C@@H](C(F)(F)F)CNC3=O)c(C3CCOCC3)nc2n1)C1CCC(F)(F)CC1)c1ccnn1CCN1CCCC1C(F)(F)F` (stereo partly drawn) [Compound 430, N—((S)-(4,4-difluorocyclohexyl)(2-(((3R,5R)-2-oxo-5-(trifluoromethyl)piperidin-3-yl)methyl)-3-(tetrahydro-2H-pyran-4-yl)imidazo[1,2-b][1,2,4]triazin-6-yl)methyl)-1-(2-(2-(trifluoromethyl)pyrrolidin-1-yl)ethyl)-1H-pyrazole-5-carboxamide] were, in that order, 100 to 1000 nM and less than 100 nM.
Turning to `CCn1nccc1C(=O)N[C@H](c1cn2nc(C[C@H]3C[C@@H](C(F)(F)F)CNC3=O)c(N3CCN(C4COC4)CC3)nc2n1)C1CCC(F)(F)CC1` [Compound 433, N—((S)-(4,4-difluorocyclohexyl)(3-(4-(oxetan-3-yl)piperazin-1-yl)-2-(((3R,5R)-2-oxo-5-(trifluoromethyl)piperidin-3-yl)methyl)imidazo[1,2-b][1,2,4]triazin-6-yl)methyl)-1-ethyl-1H-pyrazole-5-carboxamide], the IC50 on IL-17A/F is 100 to 1000 nM; on IL-17A/A, less than 100 nM.
On to `CCn1nccc1C(=O)N[C@H](c1cn2nc(CN3C[C@@H](C(F)(F)F)NC3=O)c(C3CCOCC3)nc2n1)C1CCC(F)(F)CC1` [Compound 434], for which the IC50 at IL-17A/F was more than 1000 nM; at IL-17A/A it was 100 to 1000 nM.
As to `CCn1nccc1C(=O)N[C@H](c1cn2nc(CN3CC(F)(F)CNC3=O)c(C3CCOCC3)nc2n1)C1CCC(F)(F)CC1` [Compound 435], the IC50 is more than 1000 nM on IL-17A/F and 100 to 1000 nM on IL-17A/A.
In the case of `CCn1nccc1C(=O)N[C@H](c1cn2nc(CN3C[C@@H](C(F)(F)F)CNC3=O)c(C3CCOCC3)nc2n1)C1CCC(F)(F)CC1` [Compound 436], the figures for the IC50 on IL-17A/F and on IL-17A/A were more than 1000 nM and 100 to 1000 nM, respectively.
Turning to `CCn1nccc1C(=O)N[C@H](c1cn2nc(CN3C[C@H](C(F)(F)F)CNC3=O)c(C3CCOCC3)nc2n1)C1CCC(F)(F)CC1` [Compound 437], the IC50 at IL-17A/F was more than 1000 nM; on IL-17A/A it was 100 to 1000 nM.

(Values after patent publication US20260226068A1, “IMIDAZOTRIAZINE IL-17A MODULATORS AND USES THEREOF” (DICE ALPHA, INC., priority 2023, published 2026).)
